tested on: BaF3 V617F cells; UKE-1; test: Proliferation Assay (Cell Titer-Glo; Example 7); type: cell-based; conditions: proliferation 72 hours, inhibit JAK2 activity, cell line (BaF3 V617F or UKE-1) not stated
Procedure, shortened: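 Proliferation IC50s reflect 72 h compound exposure at 37 °C, read by Cell Titer-Glo luminescence. Compound was serially diluted 3-fold from a 5 mM DMSO stock and added as a 2× solution; BaF3 V617F cells were grown in RPMI/10% FBS, UKE-1 in Iscove's DMEM with FBS, equine serum and hydrocortisone.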

Molecule | IC50 [µM]
Cc1cc(CNS(=O)(=O)NC2CC2)ccc1Nc1nc(Nc2ccc(N3CCN(C)CC3)c(C)c2)ncc1Cl [II-181, 5-Chloro-N4-[2-methyl-4-((N-cyclopropylamino)sulfonylamino)methylphenyl]-N2-[3-methyl-4-(4-methyl-1-piperazinyl)phenyl]-2,4-pyrimidinediamine] | 4.33
5-Chloro-N4-[4-(N-cyclopropyl-N-propionylsulfonylamino)methylphenyl]-N2-[3,5-dimethyl-4-methoxyphenyl]-2,4-pyrimidinediamine [II-218] | 0.248
5-Chloro-N2-[3-methyl-4-(methyl-1-piperazinyl)phenyl]-N4-[1,2,3,4-tetrahydro-2-(ethylsulfonyl)-5-isoquinolinyl]-2,4-pyrimidinediamine [VI-2] | 2.8
Cc1cc(CNS(=O)(=O)NC2CC2)ccc1Nc1nc(Nc2ccc(N3CCN(C)CC3)nc2)ncc1Cl [II-182, 5-Chloro-N4-[2-methyl-4-((N-cyclopropylamino)sulfonylamino)methylphenyl]-N2-[6-(4-methyl-1-piperazinyl)-3-pyridinyl]-2,4-pyrimidinediamine] | 0.711
CCc1cnc(Nc2ccc(N3CCC(F)(F)CC3)cc2)nc1Nc1ccc(CNS(=O)(=O)C2CC2)cc1 [II-87, N4-[4-(N-Cyclopropylsulfonylamino)methylphenyl]-N2-[4-(4,4-difluoro-1-piperidinyl)phenyl]-5-ethyl-2,4-pyrimidinediamine] | 5.27
CCNS(=O)(=O)NCc1ccc(Nc2nc(Nc3ccc(C4CCN(C)CC4)cc3)ncc2Cl)cc1 [II-115, 5-chloro-N4-[(4-(ethylamino)sulfonylamino)methylphenyl]-N2-[4-(1-methyl-4-piperidinyl)pheny]-2,4-pyrimidinediamine] | 0.409
5-Methyl-N4-[4-(N-cyclopropylsulfonylamino)methylphenyl]-N2-[4-(1-morpholinomethyl)phenyl]-2,4-pyrimidinediamine [II-222] | 0.946
CCNS(=O)(=O)NCc1ccc(Nc2nc(Nc3ccc(N4CCC(F)(F)CC4)cc3)ncc2C)cc1 [II-123, N2-[4-(4,4-Difluoro-1-piperidinyl)phenyl]-N4-[(4-(ethylamino)sulfonylamino)methylphenyl]-5-methyl-2,4-pyrimidinediamine] | 0.373
5-Chloro-N4[4-(N-cyclopropylsulfonylamino)ethylphenyl]-N2-[4-(6-methoxy-2-methyl-methoxy)phenyl]-2,4-pyrimidinediamine [II-50] | 0.472
Cc1cnc(Nc2ccc(N3CCN(C)CC3)cc2)nc1Nc1ccc(CNS(=O)(=O)NC2CC2)cc1 [II-171, N4-[4-((N-Cyclopropylamino)sulfonylamino)methylphenyl]-5-methyl-N2-[4-(4-methyl-1-piperazinyl)phenyl]-2,4-pyrimidinediamine] | 0.735
Cc1cnc(Nc2ccc(N3CCN(C)CC3)nc2)nc1Nc1ccc(CNS(=O)(=O)NC2CC2)cc1 [II-173, N4-[4-((N-Cyclopropylamino)sulfonylamino)methylphenyl]-5-methyl-N2-[6-(4-methyl-1-piperazinyl)-3-pyridinyl]-2,4-pyrimidinediamine] | 2.34
O=S(=O)(NCc1ccc(Nc2nc(Nc3ccc(N4CCN(C5CC6CCC5C6)CC4)cc3)ncc2Cl)cc1)C1CC1 (centres unmarked) [II-61, N-(4-(2-(4-(4-(bicyclo[2.2.1]heptan-2-yl)piperazin-1-yl)phenylamino)-5-chloropyrimidin-4-ylamino)benzyl)cyclopropanesulfonamide] | 5.97
Cc1cc(Nc2ncc(Cl)c(Nc3ccc4c(c3)S(=O)(=O)NCC4)n2)cc(C)c1C [VII-9, 5-Chloro-N4-[3,4-dihydro-1,1-dioxide-2H-1,2-benzothiazin-7-yl]-N2-[3,4,5-trimethylphenyl]-2,4-pyrimidinediamine] | 1.34
Cc1cnc(Nc2ccc(N3CCN(C)CC3)cc2)nc1Nc1ccc2c(c1)C(NS(=O)(=O)C1CC1)CC2 (racemic) [V-4, (+/−)-N4-[1-(Cyclopropylsulfonylamino)indan-6-yl]-5-methyl-N2-[4-(4-methyl-1-piperazinyl)phenyl]-2,4-pyrimidinediamine] | 0.686
Cc1cnc(Nc2ccc(-c3ccccc3)cc2)nc1Nc1ccc(CCNS(=O)(=O)C2CC2)cc1 [II-75] | 10.4
Cc1cnc(Nc2cncc(C)c2N2CCN(C)CC2)nc1Nc1ccc2c(c1)S(=O)(=O)NCC2 [VII-6, 5-Methyl-N4-[3,4-dihydro-1,1-dioxide-2H-1,2-benzothiazin-7-yl]-N2-[5-methyl-4-(N-methylpiperizin-4-yl)pyridine-3-yl]-2,4-pyrimidinediamine] | 1.9
CCOc1cc(C)c(Nc2ncc(C)c(Nc3ccc(CCNS(=O)(=O)C4CC4)cc3)n2)c(C)c1 [II-63] | 0.53
5-Chloro-N4-[3,4-dihydro-1,1-dioxide-2H-1,2-benzothiazin-7-yl]-N2-[5-methyl-4-(N-methylpiperizin-4-yl)pyridine-3-yl]-2,4-pyrimidinediamine [VII-4] | 0.558
CCc1cnc(Nc2ccc(N3CCN(C)CC3)cc2)nc1Nc1ccc(CNS(=O)(=O)C2CC2)cc1 [II-86, N4-[4-(N-Cyclopropylsulfonylamino)methylphenyl]-5-ethyl-N2-[4-(4-methyl-1-piperazinyl)phenyl]-2,4-pyrimidinediamine] | 0.724
Cc1cnc(Nc2c(C)cc(OC(C)C)cc2C)nc1Nc1ccc(CCNS(=O)(=O)C2CC2)cc1 [II-64] | 0.548
CS(=O)(=O)N1CCN(c2ccc(Nc3ncc(Cl)c(Nc4ccc(CCNS(=O)(=O)C5CC5)cc4)n3)c(C(F)(F)F)c2)CC1 [II-55, 5-Chloro-N4[4-(N-cyclopropylsulfonylamino)ethylphenyl]-N2-[4-(4-methylsulfonylpiperazino)-2-trifluoromethylphenyl]-2,4-pyrimidinediamine] | 8.88
CN1CCC(c2ccc(Nc3ncc(Cl)c(Nc4cccc(S(=O)(=O)NC(C)(C)C)c4)n3)cc2)CC1 [I-17, 5-Chloro-N4-[3-(N-tert-butylsulfonyl)phenyl]-N2-[4-(N-methylpiperidin-4-yl)phenyl]-2,4-pyrimidinediamine] | 0.99

Continued by falling IC50, values first:

IC50 [µM] | Molecule
0.363 | CCNS(=O)(=O)NCc1ccc(Nc2nc(Nc3cc(Cl)c(OC)c(OC)c3)ncc2C)cc1 [II-121, N2-(3-Chloro-4,5-dimethoxyphenyl)-N4-[(4-(ethylamino)sulfonylamino)methylphenyl]-5-methyl-2,4-pyrimidinediamine]
0.338 | CN1CCN(c2ccc(Nc3ncc(C(F)(F)F)c(Nc4ccc(CNS(=O)(=O)C5CC5)cc4)n3)cc2)CC1 [II-127, N4-[4-(N-Cyclopropylsulfonylamino)methylphenyl]-N2-[4-(4-methyl-1-piperazinyl)phenyl]-5-trifluoromethyl-2,4-pyrimidinediamine]
0.327 | Cc1cnc(Nc2ccc(OCCN3CC(C)OC(C)C3)cc2)nc1Nc1ccc(CCNS(=O)(=O)C2CC2)cc1 (centres unmarked) [II-65]
0.286 | CCNS(=O)(=O)NCc1ccc(Nc2nc(Nc3cc(Cl)c(OC)c(OC)c3)ncc2Cl)cc1 [II-113, 5-Chloro-N2-(3-chloro-4,5-dimethoxyphenyl)-N4-[(4-(ethylamino)sulfonylamino)methylphenyl]-2,4-pyrimidinediamine]
0.209 | CCNS(=O)(=O)NCc1cccc(Nc2nc(Nc3cc(C)c(OC)c(C)c3)ncc2C)c1 [II-133, N2-(3,5-Dimethyl-4-methoxyphenyl)-N4-[(3-(ethylamino)sulfonylamino)methylphenyl]-5-methyl-2,4-pyrimidinediamine]
0.188 | COc1c(C)cc(Nc2ncc(Cl)c(Nc3ccc(CNS(=O)(=O)C4CC4)cc3)n2)cc1Cl [II-80, 5-Chloro-N2-(3-chloro-4-methoxy-5-methylphenyl]-N4-[4-(N-cyclopropylsulfonylamino)methylphenyl]-2,4-pyrimidinediamine]
0.167 | CCOc1cc(Nc2ncc(Cl)c(Nc3ccc(CNS(=O)(=O)C4CC4)cc3)n2)cc(OC)c1OC [II-210, 5-Chloro-N4-[4-(N-cyclopropylsulfonylamino)methylphenyl]-N2-[3,4-dimethoxy-5-ethoxyphenyl]-2,4-pyrimidinediamine]
0.142 | CCOc1c(C)cc(Nc2ncc(Cl)c(Nc3ccc(CNS(N)(=O)=O)cc3)n2)cc1C [II-147, N4-[4-(Aminosulfonylamino)methylphenyl]-5-chloro-N2-(3,5-Dimethyl-4-ethoxyphenyl)-2,4-pyrimidinediamine]
0.14 | CCNS(=O)(=O)NCc1cccc(Nc2nc(Nc3cc(C)c(OCC)c(C)c3)ncc2Cl)c1 [II-130, 5-Chloro-N2-(3,5-dimethyl-4-ethoxyphenyl)-N4-[(3-(ethylamino)sulfonylamino)methylphenyl]-2,4-pyrimidinediamine]
0.134 | COc1c(C)cc(Nc2ncc(C)c(Nc3ccc(CNS(=O)(=O)NC4CC4)cc3)n2)cc1C [II-162, N4-[4-((N-Cyclopropylamino)sulfonylamino)methylphenyl]-N2-(3,5-dimethyl-4-methoxyphenyl)-5-methyl-2,4-pyrimidinediamine]
0.114 | Cc1cnc(Nc2cc(C)c(OC(C)C)c(C)c2)nc1Nc1ccc(CNS(=O)(=O)C2CC2)cc1 [II-219, 5-Methyl-N4-[4-(N-cyclopropylsulfonylamino)methylphenyl]-N2-[3,5-dimethyl-4-(2-propoxy)phenyl]-2,4-pyrimidinediamine]
0.0581 | Cc1cc(Nc2ncc(Cl)c(Nc3ccc(CNS(=O)(=O)NC4CC4)cc3)n2)cc(C)c1OC(C)C [II-156, 5-Chloro-N4-[4-((N-cyclopropylamino)sulfonylamino)methylphenyl]-N2-(3,5-dimethyl-4-(1-methyl)ethoxyphenyl)-2,4-pyrimidinediamine]
0.0556 | CCOc1c(C)cc(Nc2ncc(C)c(Nc3ccc(CNS(=O)(=O)C4CC4)cc3)n2)cc1C [II-214, 5-Methyl-N4-[4-(N-cyclopropylsulfonylamino)methylphenyl]-N2-[3,5-dimethyl-4-ethoxyphenyl]-2,4-pyrimidinediamine]

Reference: patent publication US8304422B2, “Compositions and methods for inhibition of the JAK pathway” (Rigel Pharmaceuticals, Inc., priority 2007, dated 2012)
